Assay results taken from patent publication US20030206858A1, “Metal complex-containing pharmaceutical agents” (Schering AG, priority 1986, published 2003).

Assay: 153Gd remaining in the rat 7 days after i.v. injection of GdDTPA/dimeglumine
Assay type: in vivo
Settings: rats, one week after i.v. injection of GdDTPA; 10% calcium trisodium DTPA added to the contrast medium, versus no additive

reduction of the gadolinium concentration in the bones: about 45%
reduction of the portion of gadolinium remaining in the bodies: greater than 30%
Structure (SMILES): O=C([O-])CN(CCN(CC(=O)[O-])CC(=O)[O-])CCN(CC(=O)[O-])CC(=O)[O-].[Ca+2].[Na+].[Na+].[Na+] [calcium trisodium DTPA, Calcium-trisodium salt of DTPA]
